Active and inactive are the calls of the source.
Key:
[1] = target: T1, Insulin-degrading enzyme (Homo sapiens, UniProt P14735); experiment: cellular IDE activation of Abeta substrate cleavage – fluorescence polarization, HEK cells, dose response (AID 588439); assay type: functional, cell-based
T1 sequence (P14735 whole entry): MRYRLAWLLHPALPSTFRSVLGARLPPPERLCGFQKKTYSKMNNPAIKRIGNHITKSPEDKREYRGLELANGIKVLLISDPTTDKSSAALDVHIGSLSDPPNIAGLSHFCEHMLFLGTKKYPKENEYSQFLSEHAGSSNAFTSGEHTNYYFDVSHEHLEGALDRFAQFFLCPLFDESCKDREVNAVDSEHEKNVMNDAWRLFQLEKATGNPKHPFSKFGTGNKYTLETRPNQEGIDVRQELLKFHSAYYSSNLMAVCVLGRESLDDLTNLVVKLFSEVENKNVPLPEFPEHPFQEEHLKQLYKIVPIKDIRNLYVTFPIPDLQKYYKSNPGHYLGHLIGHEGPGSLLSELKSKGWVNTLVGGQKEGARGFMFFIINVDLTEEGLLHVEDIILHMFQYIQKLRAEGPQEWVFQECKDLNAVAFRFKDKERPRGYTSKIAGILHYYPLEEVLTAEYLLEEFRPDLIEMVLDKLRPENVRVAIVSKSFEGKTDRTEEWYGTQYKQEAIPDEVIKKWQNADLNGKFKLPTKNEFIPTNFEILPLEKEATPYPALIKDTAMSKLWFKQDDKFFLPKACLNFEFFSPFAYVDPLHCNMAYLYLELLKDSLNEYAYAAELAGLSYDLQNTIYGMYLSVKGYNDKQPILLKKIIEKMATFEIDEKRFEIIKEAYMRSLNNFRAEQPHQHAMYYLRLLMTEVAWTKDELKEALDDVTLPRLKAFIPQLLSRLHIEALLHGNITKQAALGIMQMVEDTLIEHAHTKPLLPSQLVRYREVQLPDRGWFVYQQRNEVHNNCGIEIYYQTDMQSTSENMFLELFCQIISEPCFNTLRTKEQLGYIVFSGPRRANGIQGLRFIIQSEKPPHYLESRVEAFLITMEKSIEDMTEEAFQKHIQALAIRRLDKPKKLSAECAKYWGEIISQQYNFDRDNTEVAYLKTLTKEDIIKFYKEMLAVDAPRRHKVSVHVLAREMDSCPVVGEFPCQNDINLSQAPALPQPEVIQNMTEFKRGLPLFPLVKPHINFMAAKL

[2] = tested on: HEK293; experiment: membrane integrity loss in HEK cells – cell-based, fluorescence, cytotoxicity control for IDE activator project, dose response (AID 588440); assay type: functional; settings: Homo sapiens;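 further: cytotoxicity by LDH release measuring loss of membrane integrity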
[3] = tested on: HEK293; experiment: optical interference in Abeta FP readout, dose response, artefact control for IDE activator project, biochemical, fluorescence polarization (AID 588442); assay type: functional, cell-based; settings: Homo sapiens
[4] = target: T1, Insulin-degrading enzyme; experiment: recombinant IDE activation, cell-free – biochemical, fluorescence polarization, counter-screen for IDE activator project, dose response (AID 588681)
[5] = target: T2, Hexokinase-1 (Homo sapiens, UniProt P19367); experiment: SAR analysis of small molecule inhibitors of hexokinase domain containing I (HKDC1) in the hexokinase 1 selectivity assay. [Related pubchem assays (depositor defined):AID493160, AID493190]; assay type: functional
T2 sequence (P19367 whole entry): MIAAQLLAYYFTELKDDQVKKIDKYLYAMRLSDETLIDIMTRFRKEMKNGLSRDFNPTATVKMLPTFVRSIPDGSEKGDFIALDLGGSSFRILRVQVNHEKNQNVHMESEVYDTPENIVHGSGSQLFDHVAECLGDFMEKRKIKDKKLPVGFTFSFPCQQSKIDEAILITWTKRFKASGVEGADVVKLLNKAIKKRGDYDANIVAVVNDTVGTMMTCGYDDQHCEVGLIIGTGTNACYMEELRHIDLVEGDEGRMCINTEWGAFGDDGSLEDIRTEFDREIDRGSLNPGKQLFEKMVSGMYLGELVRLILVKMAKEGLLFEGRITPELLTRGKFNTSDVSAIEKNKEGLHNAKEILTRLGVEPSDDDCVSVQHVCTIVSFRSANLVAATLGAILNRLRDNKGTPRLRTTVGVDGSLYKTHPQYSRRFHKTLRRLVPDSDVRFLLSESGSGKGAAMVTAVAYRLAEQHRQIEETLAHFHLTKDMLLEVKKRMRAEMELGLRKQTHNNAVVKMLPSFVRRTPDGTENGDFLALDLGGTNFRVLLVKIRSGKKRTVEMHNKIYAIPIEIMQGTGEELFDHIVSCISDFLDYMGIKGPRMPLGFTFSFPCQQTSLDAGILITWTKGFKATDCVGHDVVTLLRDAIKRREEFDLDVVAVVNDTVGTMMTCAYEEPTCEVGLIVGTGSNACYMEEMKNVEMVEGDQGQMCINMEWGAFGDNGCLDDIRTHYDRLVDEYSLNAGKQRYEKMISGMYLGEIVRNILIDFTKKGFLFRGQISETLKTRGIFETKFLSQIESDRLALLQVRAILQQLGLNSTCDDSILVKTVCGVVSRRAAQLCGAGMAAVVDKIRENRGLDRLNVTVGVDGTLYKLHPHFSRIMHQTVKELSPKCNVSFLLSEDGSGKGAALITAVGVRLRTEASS

[6] = target: T3, Hexokinase HKDC1 (Homo sapiens, UniProt Q2TB90); experiment: SAR analysis of small molecule inhibitors of hexokinase domain containing I (HKDC1). [Related pubchem assays (depositor defined):AID493160, AID493190]; assay type: functional
T3 sequence (Q2TB90 whole entry): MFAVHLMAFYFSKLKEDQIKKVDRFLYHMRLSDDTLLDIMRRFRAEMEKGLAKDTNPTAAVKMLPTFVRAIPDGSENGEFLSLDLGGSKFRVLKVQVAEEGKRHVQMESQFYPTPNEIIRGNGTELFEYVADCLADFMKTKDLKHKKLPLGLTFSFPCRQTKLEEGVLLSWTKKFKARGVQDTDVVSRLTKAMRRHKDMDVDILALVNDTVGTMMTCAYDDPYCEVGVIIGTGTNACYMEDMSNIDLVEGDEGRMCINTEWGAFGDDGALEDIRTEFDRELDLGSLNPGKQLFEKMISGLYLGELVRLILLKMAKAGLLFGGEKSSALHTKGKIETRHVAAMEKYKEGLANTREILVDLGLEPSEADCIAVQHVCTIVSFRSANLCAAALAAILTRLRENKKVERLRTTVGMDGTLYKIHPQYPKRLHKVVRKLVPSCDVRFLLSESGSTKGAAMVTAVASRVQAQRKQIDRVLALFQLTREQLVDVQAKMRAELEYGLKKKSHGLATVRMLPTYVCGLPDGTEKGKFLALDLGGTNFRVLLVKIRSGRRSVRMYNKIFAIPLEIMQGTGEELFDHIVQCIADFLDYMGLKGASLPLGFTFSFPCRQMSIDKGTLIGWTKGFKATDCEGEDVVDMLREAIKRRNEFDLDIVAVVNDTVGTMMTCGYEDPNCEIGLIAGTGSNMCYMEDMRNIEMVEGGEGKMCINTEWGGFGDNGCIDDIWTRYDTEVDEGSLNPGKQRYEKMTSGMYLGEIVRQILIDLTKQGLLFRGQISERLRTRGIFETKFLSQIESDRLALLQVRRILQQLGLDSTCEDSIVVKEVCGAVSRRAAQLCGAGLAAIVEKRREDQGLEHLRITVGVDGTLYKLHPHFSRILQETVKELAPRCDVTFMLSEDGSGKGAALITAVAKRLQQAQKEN

IC50 [5]	IC50 [6]	SMILES	EC50 [1]	IC50 [2]	EC50 [3]	EC50 [4]
–	–	COc1ccc(/C=C2\Oc3cc(OCC(=O)N4CCC(C(=O)O)CC4)ccc3C2=O)c(OC)c1	> 54.7 µM (inactive)	> 89.3 µM (inactive)	> 56 µM (inactive)	> 54.7 µM (inactive)
> 80 µM (inactive)	> 80 µM (inactive)	O=C(Nc1nnc(SCc2ccccc2)s1)c1ccc2ncsc2c1	–	–	–	–
–	–	Cc1nc(Cc2nnc(SC(C)C(=O)N3c4ccccc4NC(=O)C3(C)C)o2)cs1 (stereo not given)	> 54.7 µM (inactive)	> 89.1 µM (inactive)	> 55.9 µM (inactive)	> 54.7 µM (inactive)

— ChEMBL document CHEMBL1201862, “PubChem BioAssay data set” (2004)
